Results reported in patent publication US20080311589A1, “METHOD OF HIGH-THROUGHPUT SCREENING OF MOLECULES AND COMPOUNDS FOR THEIR EFFECTS ON BIOLOGICAL AND CHEMICAL PROCESSES” (priority 1999, published 2008).

Target: T1, recombinant Eg5 (Xenopus laevis, UniProt P28025)
T1 sequence (P28025 1-1067): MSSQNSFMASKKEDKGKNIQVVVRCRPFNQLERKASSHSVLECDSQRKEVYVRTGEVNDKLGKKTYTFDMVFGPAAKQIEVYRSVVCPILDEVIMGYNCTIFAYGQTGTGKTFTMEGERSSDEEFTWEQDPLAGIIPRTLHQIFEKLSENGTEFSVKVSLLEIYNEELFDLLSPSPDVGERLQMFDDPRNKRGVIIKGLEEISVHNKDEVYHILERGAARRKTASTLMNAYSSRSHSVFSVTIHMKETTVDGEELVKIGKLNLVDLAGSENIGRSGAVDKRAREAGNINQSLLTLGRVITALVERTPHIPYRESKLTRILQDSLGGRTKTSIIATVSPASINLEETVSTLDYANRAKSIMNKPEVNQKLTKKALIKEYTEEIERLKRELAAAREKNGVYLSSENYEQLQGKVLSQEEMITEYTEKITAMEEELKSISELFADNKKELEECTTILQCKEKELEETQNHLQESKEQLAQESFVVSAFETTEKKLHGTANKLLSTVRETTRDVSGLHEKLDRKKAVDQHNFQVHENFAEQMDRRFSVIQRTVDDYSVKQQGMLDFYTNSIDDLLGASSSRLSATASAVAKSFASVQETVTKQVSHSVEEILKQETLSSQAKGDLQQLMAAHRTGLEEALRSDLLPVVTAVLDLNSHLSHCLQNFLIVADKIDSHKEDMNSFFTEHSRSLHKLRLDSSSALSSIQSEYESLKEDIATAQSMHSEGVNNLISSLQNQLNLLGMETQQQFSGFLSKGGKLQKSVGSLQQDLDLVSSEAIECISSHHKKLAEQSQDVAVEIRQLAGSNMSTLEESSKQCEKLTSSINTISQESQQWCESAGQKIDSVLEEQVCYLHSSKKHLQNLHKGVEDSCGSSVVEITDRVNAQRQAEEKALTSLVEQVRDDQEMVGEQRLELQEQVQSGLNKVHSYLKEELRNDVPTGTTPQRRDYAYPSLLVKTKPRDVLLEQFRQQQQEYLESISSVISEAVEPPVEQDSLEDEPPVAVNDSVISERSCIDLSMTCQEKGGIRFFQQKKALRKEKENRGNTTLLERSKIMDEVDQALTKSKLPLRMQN
Assay: Eg5 driven microtubule gliding in vitro
Format: biochemical
Settings: for reversibility of inhibition (washout): monastrol 200 μM, then washout
Procedure: FIG. 26. […] Conventional kinesin motility was not inhibited in the same assay. A. Model for spindle bipolarity. Plus-end directed motors, such as Eg5 are thought to be involved in the separation of the centrosomes and the establishment of a symmetric spindle axis. B. Inhibition of the kinesin Eg5 results in monastrol spindles. Microtubules, green; chromosomes, blue. Eg5 is depicted as homotetramer (9). C. […] After imaging Eg5 driven microtubule gliding in the presence of monastrol (200 μM), the same assay chamber was depleted of compound and the microtubule gliding recorded (Washout). […] D. Chemical structures of monastrol and DHP2.
Mitotic kinesins have been implicated in anti-parallel overlap interactions (Walczak et al., Curr. Biol. 8:903, 1998). Inhibition of the tetrameric mitotic kinesin Eg5 with antibodies induced monoasters (Sawin et al., Nature 359:540, 1992; Blangy et al., Cell 83:125, 1995; Sharp et al., J. Cell Biol. 144:125, 1999). We therefore hypothesized that Eg5 might be a target of monastrol. Like other motile kinesins, Eg5 can drive in vitro microtubule gliding (Sawin et al., Nature 359:540, 1992; Kapoor et al., Proc. Natl. Acad. Sci. USA, 1999). We tested whether monastrol inhibits Eg5 motility in vitro. […] Microtubule attachment to the Eg5 coated coverslip was maintained in the presence of monastrol (FIG. 26C). […] To test whether inhibition of the Eg5 driven microtubule gliding is specific to monastrol, we tested the closely related compound DHP2 (FIG. 26D).

- IC50: 14 µM
- IC50 (inhibitory concentration), Eg5 driven microtubule motility: 14 µM
- reversibility of inhibition (washout): reversible in vitro and in vivo
- reversibility of inhibition (washout) (listed as Monastrol): reversible in vitro
Substance: monastrol
